# Experimental data as given in the supplement of paper PMC10307832.
# Assays:
# Assay in all cases: relative viability (nuclei count vs DMSO), 5 days (fraction); higher = more cells survive
# [1] = compound: CC1=CC=C(C=C1)C(=O)CN2C3=C(CCCC3)SC2=N [Pifithrin_alpha]
# Procedure, shortened: (§1)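 Five library-drug doses, separated by factors of √10, were pinned into 1536-well plates holding lung cancer cell lines after an overnight stay at 37 °C. Cells were fixed, permeabilised and Hoechst-stained in one step after 5 days without medium change, then imaged at 4×. Viability compares treated-well with vehicle-well nuclei, counted in MetaXpress, as a median across plates. Passing plates had control CV below 25% and at least one doubling.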
# [2] = compound: CNC(=O)c1ccccc1Sc1ccc2c(/C=C/c3ccccn3)n[nH]c2c1 [Axitinib]
# Procedure, shortened: as §1
# [3] = compound: Nc1nc(Nc2ccc3c(c2)CC[C@@H](N2CCCC2)CC3)nn1-c1cc2c(nn1)-c1ccccc1CCC2 [Bemcentinib]
# Procedure, shortened: as §1
# [4] = compound: CNC(=O)c1ccccc1Sc1ccc2c(/C=C/c3ccccn3)n[nH]c2c1 [Axitinib] + C[C@@H](Oc1cc(-c2cnn(C3CCNCC3)c2)cnc1N)c1c(Cl)ccc(F)c1Cl [Crizotinib] (partner 1 µM)
# Procedure, shortened: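 Lung cancer cell lines in 1536-well plates got either a single drug or a fixed anchor-drug dose together with five library-drug doses (not always all listed) in √10 steps, by pin tool, on the day after seeding. Nuclei were counted after 5 days, and relative viability is the treated-to-vehicle ratio of nuclei counts. Values are medians of duplicate plates.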
cell line,measurement,setting,value
NCI-H1944,relative viability,[1]; 1 µM,0.898
same,relative viability,[1]; 3.162 µM,0.826
same,relative viability,[1]; 10 µM,0.781
same,relative viability,[1]; 31.62 µM,0.451
same,relative viability,[1]; 100 µM,0.71
same,relative viability,[2]; 0.005 µM,1.04
same,relative viability,[2]; 0.01581 µM,0.952
same,relative viability,[2]; 0.05 µM,1.02
same,relative viability,[2]; 0.1581 µM,0.943
same,relative viability,[2]; 0.5 µM,0.761
same,relative viability,[3]; 0.04 µM,0.968
same,relative viability,[3]; 0.1265 µM,1.05
same,relative viability,[3]; 0.4 µM,0.993
same,relative viability,[3]; 1.265 µM,0.941
same,relative viability,[3]; 4 µM,0.988
same,relative viability,[4]; first compound 0.005 µM,1.05
same,relative viability,[4]; first compound 0.01581 µM,1.24
same,relative viability,[4]; first compound 0.05 µM,1.03
same,relative viability,[4]; first compound 0.1581 µM,1.15
same,relative viability,[4]; first compound 0.5 µM,1.18
NCI-H1975,relative viability,[1]; 1 µM,0.861
same,relative viability,[1]; 3.162 µM,0.642
same,relative viability,[1]; 10 µM,0.665
same,relative viability,[1]; 31.62 µM,0.623
same,relative viability,[1]; 100 µM,0.598
same,relative viability,[2]; 0.005 µM,1.02
same,relative viability,[2]; 0.01581 µM,0.927
same,relative viability,[2]; 0.05 µM,0.89
same,relative viability,[2]; 0.1581 µM,0.943
same,relative viability,[2]; 0.5 µM,0.985
same,relative viability,[3]; 0.04 µM,0.867
same,relative viability,[3]; 0.1265 µM,1.07
same,relative viability,[3]; 0.4 µM,1
same,relative viability,[3]; 1.265 µM,0.93
same,relative viability,[3]; 4 µM,0.973
same,relative viability,[4]; first compound 0.005 µM,1.13
same,relative viability,[4]; first compound 0.01581 µM,1.05
same,relative viability,[4]; first compound 0.05 µM,1.15
same,relative viability,[4]; first compound 0.1581 µM,0.931
same,relative viability,[4]; first compound 0.5 µM,1.08
NCI-H1993,relative viability,[1]; 1 µM,0.693
same,relative viability,[1]; 3.162 µM,0.764
same,relative viability,[1]; 10 µM,0.743
same,relative viability,[1]; 31.62 µM,0.658
same,relative viability,[1]; 100 µM,0.775
same,relative viability,[2]; 0.005 µM,1.05
same,relative viability,[2]; 0.01581 µM,0.892
same,relative viability,[2]; 0.05 µM,0.909
same,relative viability,[2]; 0.1581 µM,0.94
same,relative viability,[2]; 0.5 µM,0.864
same,relative viability,[3]; 0.04 µM,0.911
same,relative viability,[3]; 0.1265 µM,0.927
same,relative viability,[3]; 0.4 µM,1.22
same,relative viability,[3]; 1.265 µM,0.921
same,relative viability,[3]; 4 µM,0.994
same,relative viability,[4]; first compound 0.005 µM,1.01
same,relative viability,[4]; first compound 0.01581 µM,0.983
same,relative viability,[4]; first compound 0.05 µM,0.873
same,relative viability,[4]; first compound 0.1581 µM,0.96
same,relative viability,[4]; first compound 0.5 µM,0.858
NCI-H2009,relative viability,[1]; 1 µM,0.96
same,relative viability,[1]; 3.162 µM,1.01
same,relative viability,[1]; 10 µM,0.974
same,relative viability,[1]; 31.62 µM,0.65
same,relative viability,[1]; 100 µM,0.878
same,relative viability,[2]; 0.005 µM,1.01
same,relative viability,[2]; 0.01581 µM,1
same,relative viability,[2]; 0.05 µM,1.05
same,relative viability,[2]; 0.1581 µM,1.06
same,relative viability,[2]; 0.5 µM,1.09
same,relative viability,[3]; 0.04 µM,1.02
same,relative viability,[3]; 0.1265 µM,1.04
same,relative viability,[3]; 0.4 µM,1.04
same,relative viability,[3]; 1.265 µM,1.03
same,relative viability,[3]; 4 µM,1.05
same,relative viability,[4]; first compound 0.005 µM,1.17
same,relative viability,[4]; first compound 0.01581 µM,1.14
same,relative viability,[4]; first compound 0.05 µM,1.01
same,relative viability,[4]; first compound 0.1581 µM,1.08
same,relative viability,[4]; first compound 0.5 µM,1.16
NCI-H2023,relative viability,[1]; 1 µM,0.924
same,relative viability,[1]; 3.162 µM,0.846
same,relative viability,[1]; 10 µM,0.902
same,relative viability,[1]; 31.62 µM,0.461
same,relative viability,[1]; 100 µM,0.686
same,relative viability,[2]; 0.005 µM,0.984
same,relative viability,[2]; 0.01581 µM,0.972
same,relative viability,[2]; 0.05 µM,0.945
same,relative viability,[2]; 0.1581 µM,0.936
same,relative viability,[2]; 0.5 µM,1.13
same,relative viability,[3]; 0.04 µM,0.975
same,relative viability,[3]; 0.1265 µM,1.08
same,relative viability,[3]; 0.4 µM,1.14
same,relative viability,[3]; 1.265 µM,1.08
same,relative viability,[3]; 4 µM,1.13
same,relative viability,[4]; first compound 0.005 µM,0.699
same,relative viability,[4]; first compound 0.01581 µM,0.786
same,relative viability,[4]; first compound 0.05 µM,0.651
same,relative viability,[4]; first compound 0.1581 µM,0.73
same,relative viability,[4]; first compound 0.5 µM,0.684
NCI-H2085,relative viability,[1]; 1 µM,0.892
same,relative viability,[1]; 3.162 µM,0.973
same,relative viability,[1]; 10 µM,0.947
same,relative viability,[1]; 31.62 µM,0.897
same,relative viability,[1]; 100 µM,0.959
same,relative viability,[2]; 0.005 µM,1.02
same,relative viability,[2]; 0.01581 µM,1.05
same,relative viability,[2]; 0.05 µM,1.03
same,relative viability,[2]; 0.1581 µM,0.998
same,relative viability,[2]; 0.5 µM,0.998
same,relative viability,[3]; 0.04 µM,0.964
same,relative viability,[3]; 0.1265 µM,1.03
same,relative viability,[3]; 0.4 µM,0.994
same,relative viability,[3]; 1.265 µM,1.02
same,relative viability,[3]; 4 µM,0.993
same,relative viability,[4]; first compound 0.005 µM,0.799
same,relative viability,[4]; first compound 0.01581 µM,0.902
same,relative viability,[4]; first compound 0.05 µM,0.794
same,relative viability,[4]; first compound 0.1581 µM,0.718
same,relative viability,[4]; first compound 0.5 µM,0.874
NCI-H2087,relative viability,[1]; 1 µM,0.932
same,relative viability,[1]; 3.162 µM,1.13
same,relative viability,[1]; 10 µM,1.02
same,relative viability,[1]; 31.62 µM,0.63
same,relative viability,[1]; 100 µM,0.958
same,relative viability,[2]; 0.005 µM,0.939
same,relative viability,[2]; 0.01581 µM,1.09
same,relative viability,[2]; 0.05 µM,0.996
same,relative viability,[2]; 0.1581 µM,1.02
same,relative viability,[2]; 0.5 µM,0.986
same,relative viability,[3]; 0.04 µM,1.12
same,relative viability,[3]; 0.1265 µM,1.2
same,relative viability,[3]; 0.4 µM,1.07
same,relative viability,[3]; 1.265 µM,0.969
same,relative viability,[3]; 4 µM,1.03
same,relative viability,[4]; first compound 0.005 µM,0.986
same,relative viability,[4]; first compound 0.01581 µM,0.912
same,relative viability,[4]; first compound 0.05 µM,0.914
same,relative viability,[4]; first compound 0.1581 µM,0.767
same,relative viability,[4]; first compound 0.5 µM,0.825
NCI-H2126,relative viability,[1]; 1 µM,0.638
same,relative viability,[1]; 3.162 µM,0.862
same,relative viability,[1]; 10 µM,0.884
same,relative viability,[1]; 31.62 µM,0.85
same,relative viability,[1]; 100 µM,0.822
same,relative viability,[2]; 0.005 µM,0.979
same,relative viability,[2]; 0.01581 µM,0.991
same,relative viability,[2]; 0.05 µM,0.993
same,relative viability,[2]; 0.1581 µM,1
same,relative viability,[2]; 0.5 µM,0.953
same,relative viability,[3]; 0.04 µM,1
same,relative viability,[3]; 0.1265 µM,1.03
same,relative viability,[3]; 0.4 µM,1.03
same,relative viability,[3]; 1.265 µM,1.04
same,relative viability,[3]; 4 µM,1.11
same,relative viability,[4]; first compound 0.005 µM,1.08
same,relative viability,[4]; first compound 0.01581 µM,0.998
same,relative viability,[4]; first compound 0.05 µM,0.928
same,relative viability,[4]; first compound 0.1581 µM,0.97
same,relative viability,[4]; first compound 0.5 µM,1.02
NCI-H2170,relative viability,[1]; 1 µM,0.989
same,relative viability,[1]; 3.162 µM,1.04
same,relative viability,[1]; 10 µM,0.875
same,relative viability,[1]; 31.62 µM,0.948
same,relative viability,[1]; 100 µM,0.962
same,relative viability,[2]; 0.005 µM,1.1
same,relative viability,[2]; 0.01581 µM,0.975
same,relative viability,[2]; 0.05 µM,1.01
same,relative viability,[2]; 0.1581 µM,0.974
same,relative viability,[2]; 0.5 µM,1
same,relative viability,[3]; 0.04 µM,1.09
same,relative viability,[3]; 0.1265 µM,1.09
same,relative viability,[3]; 0.4 µM,0.991
same,relative viability,[3]; 1.265 µM,0.999
same,relative viability,[3]; 4 µM,0.899
same,relative viability,[4]; first compound 0.005 µM,1.2
same,relative viability,[4]; first compound 0.01581 µM,1.18
same,relative viability,[4]; first compound 0.05 µM,1.27
same,relative viability,[4]; first compound 0.1581 µM,1.1
same,relative viability,[4]; first compound 0.5 µM,1.35
NCI-H2228,relative viability,[1]; 1 µM,0.99
same,relative viability,[1]; 3.162 µM,1.03
same,relative viability,[1]; 10 µM,0.97
same,relative viability,[1]; 31.62 µM,0.93
same,relative viability,[1]; 100 µM,1.05
same,relative viability,[2]; 0.005 µM,1.09
same,relative viability,[2]; 0.01581 µM,0.943
same,relative viability,[2]; 0.05 µM,1.05
same,relative viability,[2]; 0.1581 µM,1.05
same,relative viability,[2]; 0.5 µM,1.03
same,relative viability,[3]; 0.04 µM,0.8
same,relative viability,[3]; 0.1265 µM,1.13
same,relative viability,[3]; 0.4 µM,1.05
same,relative viability,[3]; 1.265 µM,0.96
same,relative viability,[3]; 4 µM,1.22
same,relative viability,[4]; first compound 0.005 µM,0.443
same,relative viability,[4]; first compound 0.01581 µM,0.473
same,relative viability,[4]; first compound 0.05 µM,0.384
same,relative viability,[4]; first compound 0.1581 µM,0.612
same,relative viability,[4]; first compound 0.5 µM,0.438
